According to US20240287089A1, “Preparation and Uses of 7-Azaindenoisoquinolines” (Purdue Research Foundation, priority 0001, published 2024):
Read-outs that look alike come from different tables or passages of the source.

Experiments:
[1] = Maximum tolerated dose determination in NOD SCID mice; format: in vivo; details: QD x 5; for Body Weight %: 7 days after first dose
Procedure: Maximum Tolerated Dose Determinations. […]. […] Experiments involving 100 mg/kg doses of all three drugs were terminated after one day because of toxicity, while the study involving 50 mg/kg dose of G105 was also halted after one day (FIG. 12). Similarly, the investigation with a 40 mg/kg dose of G105 was discontinued after two days (FIG. 13).

[2] = format: in vivo
in vivo = format: in vivo
c-Myc [3] = assay: Western blot of RS4;11 tumor xenograft tissue; format: in vivo, human
Source text: (§1) In several cases, the levels of c-Myc were more greatly depressed at the lower dose level. For examples, see the 9-hour data for G104 in Tables 17 and 18 and the 6-hour data in Table 19. […] Overall, there are many unexpected and unexplained aspects of the data in Tables 17-19, which are highly variable and also highly dependent on cell type. In particular, drug-induced increases in c-Myc expression relative to control and the larger changes in c-Myc expression seen at lower vs. higher doses are counterintuitive and unexplained.

γ-H2AX [4] = assay: Western blot of RS4;11 tumor xenograft tissue; format: in vivo, human
c-Myc [5] = assay: Western blot of MOLT-4 tumor xenograft tissue; format: in vivo, human
γ-H2AX [6] = assay: Western blot of MOLT-4 tumor xenograft tissue; format: in vivo, human
Source text: as §1

c-Myc [7] = assay: Western blot of RD-ES tumor xenograft tissue; format: in vivo, human
Source text: as §1

γ-H2AX [8] = assay: Western blot of RD-ES tumor xenograft tissue; format: in vivo, human
Source text: as §1

DU-145 (Prostate) = assay: NCI-60 cytotoxicity assay; format: cell-based, human; details: Homo sapiens; Prostate DU-145, 48 h; read-out: Cytotoxicity GI50
Procedure, shortened: (§2)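 5-dose SRB assay, 100 μM–10 nM, 48 h exposure; % growth vs log[compound] yields GI50; compounds passing the pre-screen only.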

HCT-116 (Colon) = assay: NCI-60 cytotoxicity assay; format: cell-based, human; details: Homo sapiens; Colon HCT-116, 48 h; read-out: Cytotoxicity GI50
Procedure, shortened: as §2

HOP-62 (Lung) = assay: NCI-60 cytotoxicity assay; format: cell-based, human; details: Homo sapiens; Lung HOP-62, 48 h; read-out: Cytotoxicity GI50
Procedure, shortened: as §2

MCF7 (Breast) = assay: NCI-60 cytotoxicity assay; format: cell-based, human; details: Homo sapiens; Breast MCF7, 48 h; read-out: Cytotoxicity GI50
Procedure, shortened: as §2

OVCAR-3 (Ovarian) = assay: NCI-60 cytotoxicity assay; format: cell-based, human; details: Homo sapiens; Ovarian OVCAR-3, 48 h; read-out: Cytotoxicity GI50
Procedure, shortened: as §2

SN12C (Renal) = assay: NCI-60 cytotoxicity assay; format: cell-based, human; details: Homo sapiens; Renal SN12C, 48 h; read-out: Cytotoxicity GI50
Procedure, shortened: as §2

UACC-62 (Melanoma) = assay: NCI-60 cytotoxicity assay; format: cell-based, human; details: Homo sapiens; Melanoma UACC-62, 48 h; read-out: Cytotoxicity GI50
Procedure, shortened: as §2

SF-539 (CNS) = assay: NCI-60 cytotoxicity assay; format: cell-based; details: Homo sapiens; CNS SF-539, 48 h; read-out: Cytotoxicity GI50
Procedure, shortened: as §2

NCI-60 cancer cell lines = assay: NCI-60 cytotoxicity assay, MGM; format: cell-based; details: Homo sapiens; read-out: MGM (average GI50 across NCI-60 panel)
Procedure, shortened: as §2

[9] = human, 6 h, 1 μM
Procedure: (§3) Analysis of Plasma Protein Binding and Stability in Human and Mouse Blood Plasma by Equilibrium Dialysis. Frozen plasma (stored at −80° C.) was thawed immediately in a 37° C. water bath. The working solutions of test compound and control compound were prepared in DMSO at 200 μM concentration, and the working solutions were spiked into plasma. The final concentration of compound was 1 μM. The final concentration of DMSO was 0.5%. Ketoconazole was used as positive control in the assay. The dialysis membranes were soaked in ultrapure water for 60 min to separate strips, then in 20% ethanol for 20 min, and then finally in dialysis buffer for 20 min. For equilibrium dialysis, each cell contained plasma sample (150 μL) and was dialyzed against an equal volume of dialysis buffer (PBS). The assay was performed in duplicate. The dialysis plate was sealed and incubated at 37° C. with 5% CO2 at 100 rpm for 6 h. At the end of incubation, samples (50 μL) from both buffer and plasma chambers were transferred to wells of a 96-well plate. Plasma (50 μL) was added to each buffer sample and an equal volume of PBS was added to the collected plasma sample. Cold acetonitrile (400 μL) containing internal standards (IS, 100 nM alprazolam, 200 nM labetalol, 200 nM imipramine and 2 μM ketoprofen) was added to precipitate protein and release compounds. Samples were vortexed for 2 min and centrifuged for 30 min at 3,220 g. An aliquot (100 μL) of the supernatant was diluted with ultra-pure H2O (100 μL), and the mixture was used for LC-MS/MS analysis. For stability determination in plasma, a spiked plasma sample (50 μL) was transferred to a new plate and incubated at 37° C., 5% CO2 for 0 and 6 h. At designated time points, PBS (50 μL) was added and mixed thoroughly, followed by the addition of room temperature quench solution [400 μL of acetonitrile containing internal standards (IS, 100 nM alprazolam, 200 nM labetalol, 200 nM imipramine and 2 μM ketoprofen)] to precipitate protein and release compounds. Samples were vortexed for 2 min and centrifuged for 30 min at 3,220 g. An aliquot (400 μL) of the supernatant was diluted by ultra-pure H2O, and the mixture was used for LC-MS/MS analysis. The concentrations of test compounds in the buffer and plasma chambers were determined from peak area ratios.

[10] = mouse, 6 h, 1 μM
Procedure: as §3

SMILES: CCNCCCn1c2c(c3cc(OC)c(OC)cc3c1=O)C(=O)c1cc3c(nc1-2)OCO3 [G104, 6-(3-(Ethylamino)propyl)-2,3-dimethoxy-5H-[1,3]dioxolo[4″,5″:5′,6′]pyrido [3′,2′:4,5]cyclopenta[1,2-c]isoquinoline-5,12(6H)-dione]
- Body Weight % ([1]; 5 mg/Kg IV): 92.4%
- Body Weight % ([1]; 10 mg/Kg IV): 95.2%
- Body Weight % ([1]; 15 mg/Kg IV): 87%
- Body Weight % ([1]; 20 mg/Kg IV): 83.3%
- Body Weight % ([1]; 30 mg/Kg IV): 88.8%
- Body Weight % ([1]; 40 mg/Kg IV): 78.8%
- Maximum tolerated dose (MTD) ([1]; NOD SCID mice, IV, body weight % ≥80%): 30 mg/kg
- Mean Tumor/Plasma Ratio ([2]; MOLT-4, 3 h, IV 15 mg/kg): 51.3 ± 6.7
- Mean Tumor/Plasma Ratio ([2]; MOLT-4, 3 h, IV 30 mg/kg): 69.5 ± 8.8
- Mean Tumor/Plasma Ratio ([2]; MOLT-4, 9 h, IV 15 mg/kg): 125 ± 29
- Mean Tumor/Plasma Ratio ([2]; MOLT-4, 9 h, IV 30 mg/kg): 106 ± 21
- Kp at 3 h (in vivo; NOD SCID, mouse, tumor and plasma, RS4;11, 3 h, IV 15 mg/kg, read-out: Mean Tumor/Plasma Ratio): 76.1 ± 18.9
- Mean Tumor/Plasma Ratio (in vivo; RS4;11, 3 h, IV 30 mg/kg): 77.3 ± 11.8
- Mean Tumor/Plasma Ratio (in vivo; RS4;11, 9 h, IV 15 mg/kg): 130 ± 32
- Mean Tumor/Plasma Ratio (in vivo; RS4;11, 9 h, IV 30 mg/kg): 112 ± 16
- c-Myc/GAPDH, % Relative to Vehicle (c-Myc [3]; RS4;11, IV 15 mg/kg, 3 h): 92.20 ± 2.11%
- c-Myc/GAPDH, % Relative to Vehicle (c-Myc [3]; RS4;11, IV 15 mg/kg, 9 h): 92.59 ± 13.64%
- c-Myc/GAPDH, % Relative to Vehicle (c-Myc [3]; RS4;11, IV 30 mg/kg, 3 h): 111.60 ± 8.19%
- c-Myc/GAPDH, % Relative to Vehicle (c-Myc [3]; RS4;11, IV 30 mg/kg, 9 h): 100.31 ± 2.71%
- γ-H2AX/GAPDH, % Relative to Vehicle (γ-H2AX [4]; RS4;11, IV 15 mg/kg, 3 h): 133.08 ± 38.59%
- γ-H2AX/GAPDH, % Relative to Vehicle (γ-H2AX [4]; RS4;11, IV 15 mg/kg, 9 h): 142.66 ± 23.92%
- γ-H2AX/GAPDH, % Relative to Vehicle (γ-H2AX [4]; RS4;11, IV 30 mg/kg, 3 h): 150.28 ± 29.86%
- γ-H2AX/GAPDH, % Relative to Vehicle (γ-H2AX [4]; RS4;11, IV 30 mg/kg, 9 h): 220.37 ± 47.79%
- c-Myc/GAPDH, % Relative to Vehicle (c-Myc [5]; MOLT-4, IV 15 mg/kg, 3 h): 119.75 ± 13.40%
- c-Myc/GAPDH, % Relative to Vehicle (c-Myc [5]; MOLT-4, IV 15 mg/kg, 9 h): 88.54 ± 7.63%
- c-Myc/GAPDH, % Relative to Vehicle (c-Myc [5]; MOLT-4, IV 30 mg/kg, 3 h): 114.32 ± 4.41%
- c-Myc/GAPDH, % Relative to Vehicle (c-Myc [5]; MOLT-4, IV 30 mg/kg, 9 h): 100.33 ± 2.35%
- γ-H2AX/GAPDH, % Relative to Vehicle (γ-H2AX [6]; MOLT-4, IV 15 mg/kg, 3 h): 71.86 ± 8.95%
- γ-H2AX/GAPDH, % Relative to Vehicle (γ-H2AX [6]; MOLT-4, IV 15 mg/kg, 9 h): 138.12 ± 23.51%
- γ-H2AX/GAPDH, % Relative to Vehicle (γ-H2AX [6]; MOLT-4, IV 30 mg/kg, 3 h): 47.29 ± 12.20%
- γ-H2AX/GAPDH, % Relative to Vehicle (γ-H2AX [6]; MOLT-4, IV 30 mg/kg, 9 h): 168.88 ± 39.58%
- c-Myc/GAPDH, % Relative to Vehicle (c-Myc [7]; IV 15 mg/kg, 3 h): 128.94 ± 6.14%
- c-Myc/GAPDH, % Relative to Vehicle (c-Myc [7]; IV 15 mg/kg, 6 h): 53.57 ± 10.75%
- c-Myc/GAPDH, % Relative to Vehicle (c-Myc [7]; IV 30 mg/kg, 3 h): 188.78 ± 28.24%
- c-Myc/GAPDH, % Relative to Vehicle (c-Myc [7]; IV 30 mg/kg, 6 h): 91.67 ± 23.70%
- γ-H2AX/GAPDH, % Relative to Vehicle (γ-H2AX [8]; IV 15 mg/kg, 3 h): 155.18 ± 11.44%
- γ-H2AX/GAPDH, % Relative to Vehicle (γ-H2AX [8]; IV 15 mg/kg, 6 h): 101.89 ± 7.35%
- γ-H2AX/GAPDH, % Relative to Vehicle (γ-H2AX [8]; IV 30 mg/kg, 3 h): 85.61 ± 23.26%
- γ-H2AX/GAPDH, % Relative to Vehicle (γ-H2AX [8]; IV 30 mg/kg, 6 h): 99.26 ± 10.19%
- GI50 (DU-145 (Prostate)): 0.55 µM
- GI50 (HCT-116 (Colon)): 1.18 µM
- GI50 (HOP-62 (Lung)): 0.2 µM
- GI50 (MCF7 (Breast)): 0.075 µM
- GI50 (OVCAR-3 (Ovarian)): 11.3 µM
- GI50 (SN12C (Renal)): 4.61 µM
- GI50 (UACC-62 (Melanoma)): 1.81 µM
- GI50 (SF-539 (CNS)): 0.68 µM
- GI50 (NCI-60 cancer cell lines): 1.45 µM
- % Recovery [9]: 83.58%
- % Bound ([9]; plasma): 81.21%
- % Recovery [10]: 80.60%
- % Bound ([10]; plasma): 83.44%
